From ChEMBL document CHEMBL4619768, “Limonoids from Cipadessa baccifera” (J Nat Prod, 2020)
Active and inactive are the calls of the source. The rule behind the calls is not given here.

Test system: Plasmodium falciparum
Assay: Antimalarial activity against chloroquine-resistant ring-stage Plasmodium falciparum Dd2 incubated for 72 hrs by SYBR green1 dye-based assay
Format: functional, organism-based
Conditions: for IC50: Dd2, 72 h

IC50 [µM] | Structure (SMILES) | Activity
 | COC(=O)C[C@H]1C(C)(C)[C@@H](O)[C@H](OC(C)=O)[C@@H]2OC3=C(C)C4=CC(=O)O[C@@H](c5ccoc5)[C@]4(C)[C@@H](O)[C@@H]3[C@@]21C | inactive
20 | C=C1[C@]2(O)CC[C@@]3(C)[C@H](c4ccoc4)CC(=O)C[C@]13O[C@H]1[C@@H](OC(=O)C(C)C)[C@H](O)C(C)(C)[C@H](CC(=O)OC)[C@]12C | 
 | C=C1C2[C@H](O)C[C@@]3(C)[C@H](c4ccoc4)CC(=O)C[C@]13O[C@H]1[C@@H](OC(=O)[C@H](C)CC)[C@H](O)C(C)(C)[C@H](CC(=O)OC)[C@@]21C | inactive
16.3 | C=C1[C@]2(O)CC[C@@]3(C)[C@H](c4ccoc4)CC(=O)C[C@]13O[C@H]1[C@@H](OC(=O)[C@H](C)CC)[C@H](O)C(C)(C)[C@H](CC(=O)OC)[C@]12C | 
 | COC(=O)[C@@H](O)[C@H]1C(C)(C)[C@H](OC(C)=O)[C@H](OC(C)=O)[C@@H]2O[C@]34CC(=O)O[C@@H](c5ccoc5)[C@]3(C)[C@@H](OC(C)=O)[C@@H](C(=O)[C@@H]4C)[C@@]21C | inactive
 | COC(=O)[C@@H](O)[C@H]1C(C)(C)[C@H](OC(C)=O)C[C@@H]2OC3=C(C)C4=CC(=O)O[C@@H](c5ccoc5)[C@]4(C)[C@@H](OC(C)=O)[C@@H]3[C@@]21C | inactive
28 | COC(=O)C[C@H]1C(C)(C)[C@@H](O)[C@H](OC(=O)C(C)C)[C@@H]2O[C@]34CC(=O)O[C@@H](c5ccoc5)[C@]3(C)C[C@@H](C(=O)[C@@H]4C)[C@@]21C | 
 | COC(=O)C[C@H]1C(C)(C)[C@@H](OC(C)=O)[C@H](O)[C@@H]2OC3=C(C)C4=CC(=O)O[C@@H](c5ccoc5)[C@]4(C)[C@@H](O)[C@@H]3[C@@]21C | inactive
 | COC(=O)[C@@H](O)[C@H]1C(C)(C)[C@H](OC(C)=O)[C@H](OC(C)=O)[C@@H]2O[C@]34CC(=O)O[C@@H](c5ccoc5)[C@]3(C)C[C@@H](C(=O)[C@@H]4C)[C@@]21C | inactive
 | C=C1[C@@]23CC(=O)C[C@@H](c4ccoc4)[C@]2(C)C[C@@H](OC(C)=O)[C@]1(O)[C@@]1(C)[C@@H](O3)[C@@H](OC(=O)C(C)C)[C@H](O)C(C)(C)[C@@H]1CC(=O)OC | inactive
23.1 | C=C1[C@@]23CC(=O)C[C@@H](c4ccoc4)[C@]2(C)C[C@@H](OC(C)=O)[C@]1(O)[C@@]1(C)[C@@H](O3)[C@@H](OC(=O)[C@H](C)CC)[C@H](O)C(C)(C)[C@@H]1CC(=O)OC | 
16.9 | COC(=O)[C@@H](O)[C@H]1C(C)(C)[C@@H](O)[C@H](OC(=O)C(C)C)[C@@H]2O[C@]34CC(=O)O[C@@H](c5ccoc5)[C@]3(C)C[C@@H](C(=O)[C@@H]4C)[C@@]21C | 
12.3 | C=C1[C@]2(O)CC[C@@]3(C)[C@H](c4ccoc4)CC(=O)C[C@]13O[C@H]1[C@@H](OC(=O)[C@@H](C)CC)[C@H](O)C(C)(C)[C@H](CC(=O)OC)[C@]12C | 
 | C=C1C2[C@H](O)C[C@@]3(C)[C@H](c4ccoc4)CC(=O)C[C@]13O[C@H]1[C@@H](OC(=O)[C@@H](C)CC)[C@H](O)C(C)(C)[C@H](CC(=O)OC)[C@@]21C | inactive
 | COC(=O)[C@@H](O)[C@H]1C(C)(C)[C@H](OC(C)=O)C[C@@H]2O[C@]34CC(=O)O[C@@H](c5ccoc5)[C@]3(C)[C@@H](OC(C)=O)[C@@H](C(=O)[C@@H]4C)[C@@]21C | inactive
 | COC(=O)[C@@H](O)[C@H]1C(C)(C)[C@H](OC(C)=O)C[C@@H]2O[C@]34CC(=O)O[C@@H](c5ccoc5)[C@]3(C)C[C@@H](C(=O)[C@@H]4C)[C@@]21C | inactive

Structure (SMILES) | IC50 [µM] | Activity
C[C@@H]1CC[C@H]2[C@@H](C)C(=O)O[C@@H]3O[C@@]4(C)CC[C@@H]1[C@]32OO4 [ARTEMISININ] | 0.013 | 
